Assay [1] has as its target T1, FKBP (Homo sapiens, UniProt P62942). Kind of assay: binding affinity by fluorescence titrations. The arrangement: made in house.
In assay [2] the target is T2, catalytic domain of stromelysin (Homo sapiens, UniProt P08254).
T2 construct: expression construct coding for amino acid residues 81-256 plus an initiating methionine; initiating methionine (N); made in house; host or cells: E. coli BL21(DE3)/pLysS, pET3d
Put plainly: two-dimensional 15N/1H NMR correlation titration, dissociation constant. In kind it is binding. Here is the method: Binding or dissociation constants are measured by following the ^15N/^1H chemical shifts of the protein as a function of ligand concentration. A known concentration ([P]o) of the target molecule is mixed with a known concentration ([L]0) of a previously identified ligand and the two-dimensional ^15N/^1H correlation spectrum was acquired. From this spectrum, observed chemical shift values (δobs) are obtained. The process is repeated for varying concentrations of the ligand to the point of saturation of the target molecule, when possible, in which case the limiting chemical shift value for saturation (δsat) is measured.
In those situations where saturation of the target molecule is achieved, the dissociation constant for the binding of a particular ligand to the target molecule is calculated using the formula: KD = (([P]0−x)([L]0−x))/(x) [formula] where [P]0 is the total molar concentration of target molecule; [L]0 is the total molar concentration of ligand; and x is the molar concentration of the bound species. The value of x is determined from the equation: x = (δobs −δfree)/(Δ) [formula] where δfree is the chemical shift of the free species; δobs is the observed chemical shift; and Δ is the difference between the limiting chemical shift value for saturation (δsat) and the chemical shift value of the target molecule free of ligand (δfree).
The dissociation constant is then determined by varying its value until a best fitto the observed data is obtained using standard curve-fitting statistical methods. In the case where δsat is not directly known, both KD and δsat are varied and subjected to the same curve-fitting procedure.
The catalytic domain of stromelysin was prepared in accordance with the procedures of Example 1. The protein solutions used in the screening assay contained the uniformly ^15N-labeled catalytic domain of stromelysin (0.3 mM), acetohydroxamic acid (500 mM), CaCl2 (20 mM), and sodium azide (0.5%) in a H2O/D2O (9/1) TRIS buffered solution (50 mM, pH=7.0).
Two-dimensional ^15N/^1H NMR spectra were generated at 29°C on a Bruker AMX500 NMR spectrometer equipped with a triple resonance probe and Bruker sample changer. The ^15N/^1H HSQC spectra were acquired as 80 x 1024 complex points using sweep widths of 2000 Hz (^15N, t^1) and 8333 Hz (^1H, t2). A delay of 1 second between scans and 8 scans perfree induction decay(fid) were employed in the data collection. All NMR spectra were processed and analyzed on Silicon Graphics computers using in-house-written software.
A first two-dimensional ^15N/^1 H NMR correlation spectrum was acquired for the ^15N-labeled stromelysin target molecule as described above. The stromelysin target was then exposed to a database of test compounds. Stock solutions of the compounds were made at 100 mM and 1 M. In addition, a combination library was prepared that contained 8-10 compounds per sample at a concentration of 100 mM for each compound.
The NMR samples were prepared by adding 4 µl of the DMSO stock solution of the compound mixtures that contained each compound at a concentration of 100 mM to 0.4 ml H2O/D2O (9/1) buffered solution of the uniformly ^15N-labeled protein. The final concentration of each of the compounds in the NMR sample was about 1 mM.
Various biaryl compounds of structure I were tested for binding to stromelysin at differing concentrations. The ^15N/^1H spectra generated at each concentration were evaluated to quantify differences in the spectra as a function of compound concentration. A binding or dissociation constant (KD)was calculated, using standard procedures well known in the art, from those differences. The values for R1-R3 and A1-A3 in Table 1 refer to the corresponding positions in the structure I, above.
All NMR measurements were performed in the presence of 500 mM acetohydroxamic acid, except for the titration of acetohydroxamic acid itself. Dissociation constants were obtained from the dependence of the observed chemical shift changes upon added ligand. […]

Assay [3] has as its target T2, catalytic domain of stromelysin. Kind of assay: enzymatic assay, cleavage of a fluorogenic substrate. The assay is classed as biochemical. Here is the method:
In a first study, binding constants were determined, both by the NMR method of the present invention, and by a prior art enzymatic assay. The target molecule was the catalytic domain of stromelysin prepared in accordance with the procedures of Example 1. […] The KD values so obtained were compared to an inhibition constant KI as determined in an enzymatic assay.
The enzymatic assay measured the rate of cleavage of a fluorogenic substrate by following the fluorescence increase upon peptide cleavage which causes a separation between the fluorophore and quencher. Enzymatic activity was measured using a matrix of different concentrations of acetohydroxamic acid and biaryl compounds. The assay is a modification of the method described by H. Weingarten, et al. in Anal. Biochem., 147: 437-440 (1985) employing the fluorogenic substrate properties described by E. Matayoshi, et al. in Science: 247: 954-958 (1990).
Eight acetohydroxamic acid concentrations were used ranging from 0.0 to 1.0 M, and six compound concentrations were used, resulting in a total of 48 points. Individual compound concentration varied due to solubility and potency.
All NMR measurements were performed in the presence of 500 mM acetohydroxamic acid, except for the titration of acetohydroxamic acid itself. Dissociation constants were obtained from the dependence of the observed chemical shift changes upon added ligand. Inhibition constants were then obtained from the inhibition data using standard procedures.

Assay [4] has as its target T3, DNA-binding domain of the E2 protein (Human papillomavirus 31, UniProt P17383).
T3 construct: made in house; host or cells: bacteria, T7 expression system
Put plainly: two-dimensional 15N/1H NMR correlation titration, binding constants for two binding sites. Here is the method:
Compounds from the database were screened in a similar manner for binding to the DNA-binding domain of the E2 protein. Those compounds had the structure II below, where R1-R4 and A are defined in Table 2. [drawing 5]
NMR experiments were performed at 29°C on a Bruker AMX500 NMR spectrometer equipped with a triple resonance probe and Bruker sample changer. The ^15N-/^1H HSQC spectra were acquired as 80 x 1024 complex points using sweep widths of 2000 Hz (^15N,t1) and 8333 Hz (^1H, t2). A delay of 1 second between scans and 4 scans per free induction decay were employed in the data collection. All NMR spectra were processed and analyzed on Silicon Graphics computers.
By monitoring the chemical shift changes as a function of ligand concentration, binding constants for the two binding sites were also measured. Table 2 […]

The target of the next assay is T4, Stromelysin (Homo sapiens, UniProt P08254).
T4 construct: expression construct coding for amino acid residues 81-256 plus an initiating methionine; initiating methionine (N); made in house; host or cells: E. coli BL21(DE3)/pLysS, pET3d
Kind of assay: stromelysin inhibition by linked hydroxamate-biaryl compounds. In kind it is biochemical. The note with it: for pIC50: Table 4, kind of constant not given.

In assay [5] the target is T1, FKBP. Kind of assay: two-dimensional 15N/1H NMR correlation titration, dissociation constant. The assay is classed as binding. The arrangement: made in house; host or cells: recombinant. The method, then:
The second step in the design process was the identification of a second ligand that bound to the target FKBP at a site different from the binding site of compound 29. This was accomplished by screening compounds for their ability to bind to FKBP in the presence of saturating amounts of the ascomycin fragment analog (compound 29). Details of procedures for this second identification step are as set forth in example 2.
In the second round of screening, binding was assayed both in the presence and in the absence of saturating amount of compound 29 (1 mM).
Various benzanilide compounds were tested for binding to FKBP at multiple ligand concentrations. The ^15N/^1H correlation spectra generated at each concentration were evaluated to quantify differences in the spectra as a function of compound concentration. A binding or dissociation constant (Kd) was calculated, using standard procedures well known in the art, from those differences. The values for R1-R4 in Table 5 refer to the corresponding positions in the structure III, above.

Setting [6] is: Table 1, biaryl compounds of structure I, differing concentrations, read-out: KD.
Setting [7] is: fluorogenic substrate, matrix of acetohydroxamic acid and compound concentrations, read-out: Assay KI.
Setting [8] is: Table 3, in the presence of 500 mM acetohydroxamic acid, read-out: NMR KD.
The mark [9] stands for this setting: amides of the DNA-binding site, read-out: DNA KD.
Setting [10] is: amides of the β-barrel site, read-out: β-barrel KD.

The structures appear in SMILES notation. pIC50, pKd, pKi: −log10 of the molar value. Read-outs that look alike come from different tables or passages of the source.

T1 sequence (P62942 whole entry, the tested form may be a part): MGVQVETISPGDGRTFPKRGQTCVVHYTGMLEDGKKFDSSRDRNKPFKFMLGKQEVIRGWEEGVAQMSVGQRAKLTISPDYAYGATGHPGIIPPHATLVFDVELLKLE
T3 sequence (P17383 292-372): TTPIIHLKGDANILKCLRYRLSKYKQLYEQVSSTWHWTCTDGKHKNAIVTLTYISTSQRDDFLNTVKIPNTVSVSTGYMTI
T4 sequence (P08254 98-273): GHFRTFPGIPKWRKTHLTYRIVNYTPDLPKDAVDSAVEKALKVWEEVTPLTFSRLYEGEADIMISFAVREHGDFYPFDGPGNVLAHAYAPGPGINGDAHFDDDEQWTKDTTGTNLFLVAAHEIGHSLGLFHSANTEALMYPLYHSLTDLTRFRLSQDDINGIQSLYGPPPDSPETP
T2 sequence (P08254 98-273): as above

As to `COc1cc(C(=O)C(=O)N2CCCC[C@H]2C(=O)OCCCOc2ccc(C(=O)Nc3ccc(O)cc3)cc2)cc(OC)c1OC`, on FKBP [1], the pKd was 7.72 and the “increase in potency over the ascomycin-fragment analog (compound 29) alone” value is 100 fold.
On to `Oc1cccc(-c2ccccc2)c1` [Compound 1], for which the negative-log Kd (pKd) in assay [2] was 2.96.
Turning to `OCc1ccc(-c2ccccc2)cc1` [Compound 2], the pKd in assay [2] (setting [6]) was 2.49.
On the same count and under the same terms, for `Oc1ccc(-c2ccc(Br)cc2)cc1` [Compound 3] the value was 2.89.
As for `c1ccc(-c2ccncn2)cc1` [Compound 4], the pKi in assay [3] (setting [7]) was 2.13. Besides, the pKd in assay [2] (setting [6]) and in assay [2] (setting [8]) was 2.80 throughout.
`O=Cc1ccc(-c2ccccc2)cc1` [Compound 5]: the pKd in assay [2] is 2.77.
Consider `COc1ccc(-c2ccccc2)cc1N` [Compound 6], for which the pKd in assay [2] (setting [6]) was 3.40.
For the compound `c1ccc(-c2ccncc2)cc1` [Compound 7], in assay [3] (read-out: Assay KI), the pKi is 3.49. For the same compound, the pKd in assay [2] (read-out: KD) is 3.70; in assay [2] (read-out: NMR KD), 3.77.
As for `CC(=O)Oc1ccc(-c2ccccc2)cc1` [Compound 8], the pKd in assay [2] (setting [6]) is 3.52.
Turning to `Oc1ccc(-c2ccc(O)cc2)cc1` [Compound 9], the negative-log Ki (pKi) in assay [3] (setting [7]) was 3.15. Besides, the figures for the pKd in assay [2] (setting [6]) and in assay [2] (setting [8]) were 5.00 and 3.80, respectively.
`c1cc(-c2ccncc2)ccn1` [Compound 10] had a pKi in assay [3] of 2.74. Besides, the negative logarithm of the Kd (pKd) was 3.40 in assay [2] and 3.40 in assay [2] (read-out: NMR KD, Table 3, in the presence of 500 mM acetohydroxamic acid).
For `Oc1ccc(-c2ccccc2)cc1` [Compound 11], in assay [2], the pKd was 3.52.
Regarding `N#Cc1ccc(-c2ccc(O)cc2)cc1` [Compound 12], the negative logarithm of the Ki (pKi) in assay [3] (setting [7]) is 3.96. Moreover, the pKd in assay [2] (setting [6]) was 5.00; in assay [2] (setting [8]), 4.70.
Take `O=C(c1ccccc1)c1cccc(O)c1` [Compound 13]: the negative logarithm of the Kd (pKd) is less than 1.30 in assay [4] (setting [9]) and 3.22 in assay [4] (setting [10]).
In the same order, the values of `OCc1cccc(Oc2ccccc2)c1` [Compound 14] are less than 1.30 and 2.70.
In the same order, the values of `O=C(O)c1ccc(-c2ccccc2)cc1` [Compound 15] are 2.70 and less than 1.30.
In the same order, the values of `O=C(O)c1ccc(-c2cc(Cl)cc(Cl)c2)cc1` [Compound 16] are 4.00 and less than 1.30.
On to `O=C(O)Cc1ccc(-c2ccccc2)cc1` [Compound 17], for which the pKd was 2.38 in assay [4] (setting [9]) and 2.31 in assay [4] (setting [10]).
In the same order, the values of `O=C(O)C=Cc1ccc(-c2ccccc2)cc1` [Compound 18] are 2.92 and 2.21.
On to `CC(CCc1ccc(Oc2ccccc2)cc1)CC(=O)O` (stereo not drawn) [Compound 19], for which the pKd in assay [4] (setting [9]) is 3.30; in assay [4] (setting [10]) it was 3.70.
In the case of `O=C(O)CCC(=O)c1ccc(Oc2ccccc2)cc1` [Compound 20], the results for the pKd in assay [4] (setting [9]) and in assay [4] (setting [10]) were 2.57 and 2.32, respectively.
In turn, `O=C(CCOc1ccc(-c2ccccc2)cc1)NO` [Compound 21] showed a negative logarithm of the IC50 (pIC50) at Stromelysin of 6.51.
At Stromelysin, `O=C(CCCOc1ccc(-c2ccccc2)cc1)NO` [Compound 22] gave a pIC50 of 3.96.
The compound `O=C(CCCCOc1ccc(-c2ccccc2)cc1)NO` [Compound 23] came in with an inhibition at 100 µM against Stromelysin of 38%.
The compound `O=C(CCCCCOc1ccc(-c2ccccc2)cc1)NO` [Compound 24] returned an inhibition at 100 µM at Stromelysin of 43%.
Consider `N#Cc1ccc(-c2ccc(OCCC(=O)NO)cc2)cc1` [Compound 25], for which the pIC50 on Stromelysin was 7.60.
On the same count and under the same terms, with `N#Cc1ccc(-c2ccc(OCCCC(=O)NO)cc2)cc1` [Compound 26] the figure was 5.47; with `N#Cc1ccc(-c2ccc(OCCCCC(=O)NO)cc2)cc1` [Compound 27], 5.46; with `N#Cc1ccc(-c2ccc(OCCCCCC(=O)NO)cc2)cc1` [Compound 28], 5.77.
On FKBP [1], `COC(=O)[C@@H]1CCCCN1C(=O)C(=O)c1cc(OC)c(OC)c(OC)c1` [Compound 29] showed a pKd of 5.70. Also, on FKBP [5] (ligand concentrations of 1 mM), the “occupancy of the binding site” value is more than 98%.
As to `O=C(Nc1ccc(O)cc1)c1ccccc1O` [Compound 30], the negative-log Kd (pKd) at FKBP [5] is 3.10.
The same measure, in the same setting: for `O=C(Nc1ccccc1)c1ccc(O)cc1` [Compound 32] the value was 3.30; for `O=C(Nc1ccc(O)cc1)c1ccc(O)cc1` [Compound 33], 4.00; for `O=C(Nc1ccc(O)cc1)c1ccccc1` [Compound 34], 3.22.
Same read-out and setting: with `Cc1cc(C(=O)Nc2ccc(O)cc2)ccc1O` [Compound 35] the figure was 3.30.
As for `O=C(Nc1ccccc1)c1ccccc1` [Compound 36], the pKd on FKBP [5] is less than 2.30.
Still for that read-out and setting: for `O=C(Nc1ccccc1)c1ccccc1O` [Compound 37] the value was less than 2.30.
